Some test systems named below: HT29 colon; CCRF-CEM leukemia; DLD-1 colon; SNB-75 CNS; K-562 leukemia; HOP-62 NSCLC; IGROV1 ovarian; SW-620 colon; LXFL 529 NSCLC; HCC-2998 colon.
Common to all, as to assay: NCI anticancer screen, dose series, 48 h

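Five concentrations, 48 hours, 96-well plates. GI50: concentration for 50% inhibition of growth. Definition used: TGI = concentration required for complete inhibition of growth.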 Bounds are passed on as bounds.

As to `O=S(=O)([O-])c1ccc(N=Cc2ccccc2[O-])cc1.O=S(=O)([O-])c1ccc(N=Cc2ccccc2[O-])cc1.[O]=[U+2]=[O]`, the GI50 was greater than 100 µM in the assay with HT29 colon; greater than 100 µM with CCRF-CEM leukemia; 67.9 µM in the assay on DLD-1 colon; greater than 100 µM in the assay on SNB-75 CNS; greater than 100 µM in the assay on K-562 leukemia; 81.7 µM with HOP-62 NSCLC. Besides, the GI50 with IGROV1 ovarian is 83.8 µM; in the assay with SW-620 colon, greater than 100 µM; in the assay on LXFL 529 NSCLC, greater than 100 µM. Also, the TGI in the assay with HT29 colon, in the assay on CCRF-CEM leukemia, in the assay with DLD-1 colon, in the assay with SNB-75 CNS, in the assay on K-562 leukemia and with HOP-62 NSCLC was greater than 100 µM throughout. The TGI with IGROV1 ovarian, with SW-620 colon and in the assay on LXFL 529 NSCLC was greater than 100 µM in each case.
On to `Cc1cc([N+](=O)[O-])ccc1NC(=O)C(=O)C(C(=O)c1ccccc1-c1ccccc1)C1OC(=O)c2ccccc21` (stereo unspecified), for which the TGI with HT29 colon was 41.9 µM; in the assay on CCRF-CEM leukemia it was greater than 100 µM; with K-562 leukemia, 89.3 µM; in the assay with HCC-2998 colon, 29.1 µM; in the assay with IGROV1 ovarian it was 67.8 µM; in the assay with SW-620 colon it was 36.6 µM. For the same molecule, the TGI in the assay with LXFL 529 NSCLC is 30 µM.
Consider `CCOC(=O)C1SC(=Nc2cccc(Cl)c2C)N=C1C` (stereo unspecified), for which the TGI in the assay with HT29 colon is 32.6 µM; with DLD-1 colon it was greater than 10 µM; in the assay on SNB-75 CNS, 61.4 µM; with K-562 leukemia it was 89 µM; in the assay with HCC-2998 colon, greater than 10 µM; in the assay on HOP-62 NSCLC, greater than 100 µM. Further, the TGI is greater than 100 µM in the assay on IGROV1 ovarian, 57.5 µM in the assay on SW-620 colon and greater than 10 µM in the assay with LXFL 529 NSCLC.
As for `c1ccc([CH2][Sn]([CH2]c2ccccc2)([O]c2cccc3cccnc23)[O]c2cccc3cccnc23)cc1`, the GI50 in the assay with HT29 colon is 0.139 µM; in the assay with DLD-1 colon it was 0.398 µM; in the assay on SNB-75 CNS, 0.468 µM; with HCC-2998 colon, 0.201 µM; in the assay on HOP-62 NSCLC, 0.207 µM; in the assay on IGROV1 ovarian, 0.403 µM. In addition, the figures for the GI50 in the assay on SW-620 colon and with LXFL 529 NSCLC were 0.188 µM and 0.32 µM, respectively. Also, the TGI with HT29 colon turned out to be 0.361 µM; with DLD-1 colon, 1.35 µM; in the assay on SNB-75 CNS, 1.81 µM; in the assay on HCC-2998 colon it was 0.418 µM; with HOP-62 NSCLC it was 0.515 µM; in the assay on IGROV1 ovarian it was 1.23 µM. Also, the TGI with SW-620 colon turned out to be 0.376 µM; in the assay with LXFL 529 NSCLC, 1.2 µM.
For the molecule `COC(=O)C(Cc1nc2ccccc2[nH]c1=O)/C(=N\NC(C)(C)C)C(=O)Nc1c(C)cc(Br)cc1C` (stereo unspecified), the TGI is greater than 100 µM in the assay with HT29 colon; 57.3 µM in the assay on CCRF-CEM leukemia; 48.8 µM with DLD-1 colon; greater than 100 µM in the assay on K-562 leukemia; greater than 100 µM in the assay with HCC-2998 colon; greater than 100 µM in the assay on HOP-62 NSCLC. The TGI with IGROV1 ovarian was greater than 100 µM; in the assay with SW-620 colon, 80.1 µM; with LXFL 529 NSCLC, 47.9 µM.
Turning to `C=CC(=O)NCCSCCCOC1(C(=O)O)CC(O)C(NC(C)=O)C(C(O)C(O)CO)O1` (stereo unspecified), the TGI with HT29 colon, in the assay with DLD-1 colon, in the assay on K-562 leukemia, with HCC-2998 colon, with IGROV1 ovarian and in the assay on SW-620 colon was greater than 100 µM each time. Also, in the assay with LXFL 529 NSCLC, the TGI was greater than 100 µM.
Turning to `COc1ccc(OC(C)=O)c2c1CCC=CC2=O`, the TGI in the assay with HT29 colon stood at 33.7 µM; with CCRF-CEM leukemia, 17.1 µM; in the assay with SNB-75 CNS, 29.3 µM; in the assay with K-562 leukemia it was 18.6 µM; in the assay with HCC-2998 colon, 32.9 µM; with HOP-62 NSCLC it was 28 µM. Further, the TGI with IGROV1 ovarian was 34.4 µM; in the assay with SW-620 colon, 28.8 µM; in the assay on LXFL 529 NSCLC it was 21.5 µM.
For `COc1ccc(C(CCC(C)=O)C(=O)O)cc1OC` (stereo unspecified), the TGI with HT29 colon, in the assay with DLD-1 colon, in the assay with SNB-75 CNS, in the assay with K-562 leukemia, with HOP-62 NSCLC and in the assay with IGROV1 ovarian was greater than 100 µM throughout. In the assay on SW-620 colon, this molecule came in with a TGI greater than 100 µM.
As to `CCOC(=O)c1ccccc1OC(=O)NNc1ccccc1`, the GI50 with HT29 colon is greater than 100 µM; in the assay with CCRF-CEM leukemia, 1.8 µM; in the assay on SNB-75 CNS it was greater than 60.4 µM; in the assay with K-562 leukemia, 0.225 µM; in the assay on HCC-2998 colon, 0.583 µM; in the assay on HOP-62 NSCLC, greater than 84.2 µM. The GI50 in the assay with IGROV1 ovarian is 33.9 µM; in the assay on SW-620 colon, 12.4 µM. In addition, the TGI in the assay on HT29 colon, with CCRF-CEM leukemia, in the assay on SNB-75 CNS, in the assay on K-562 leukemia, with HOP-62 NSCLC and in the assay on IGROV1 ovarian was greater than 100 µM each time. For the same molecule, the TGI with SW-620 colon is greater than 100 µM.
As to `O=C1c2[nH]cc(CNC3CN4CCC3CC4)c2C(=O)c2c1c(O)c1ccccc1c2O` (stereo unspecified), the GI50 is 12.5 µM with HT29 colon; 0.141 µM with CCRF-CEM leukemia; 16.2 µM with SNB-75 CNS; 0.238 µM with K-562 leukemia; 0.187 µM with HCC-2998 colon; 1.11 µM in the assay on HOP-62 NSCLC. Moreover, the GI50 with IGROV1 ovarian was 1.33 µM; in the assay with SW-620 colon, 0.117 µM. Besides, the TGI is 38.3 µM with HT29 colon; 1.56 µM in the assay on CCRF-CEM leukemia; 44.6 µM in the assay on SNB-75 CNS; 12.1 µM with K-562 leukemia; 0.721 µM with HCC-2998 colon; 2.43 µM in the assay with HOP-62 NSCLC. Besides, the TGI in the assay on IGROV1 ovarian turned out to be 3.84 µM; in the assay with SW-620 colon, 0.399 µM.
Turning to `C=C=C(C(=O)OC)S(=O)c1ccccc1[N+](=O)[O-]` (stereo unspecified), the TGI is greater than 100 µM in the assay with HT29 colon; 77 µM in the assay with CCRF-CEM leukemia; greater than 100 µM in the assay on SNB-75 CNS; greater than 100 µM in the assay with K-562 leukemia; greater than 100 µM in the assay on HCC-2998 colon; greater than 100 µM with HOP-62 NSCLC. In addition, the TGI in the assay on IGROV1 ovarian, with SW-620 colon and in the assay on LXFL 529 NSCLC was greater than 100 µM each time.
Consider `CC(=O)Nc1ccccc1-c1nc2ccccc2nc1C`, for which the TGI with HT29 colon, in the assay with CCRF-CEM leukemia, in the assay with DLD-1 colon, with SNB-75 CNS, with K-562 leukemia and in the assay with HOP-62 NSCLC was greater than 100 µM throughout. Besides, the TGI with IGROV1 ovarian, with SW-620 colon and in the assay on LXFL 529 NSCLC was greater than 100 µM throughout.
